Test results taken from ChEMBL document CHEMBL1134837, “A conformational and structure-activity relationship study of cytotoxic 3,5-bis(arylidene)-4-piperidones and related N-acryloyl analogues” (J Med Chem, 2001).
“And” between values parts separate entries of the source, which are not always exact repeats. Equal values may be shown once.

Legend:
[1] = test system: P388; assay: Cytotoxicity against murine P388 cells.; type: functional, cell-based; settings: Mus musculus
[2] = test system: L1210; assay: Inhibitory effect on the biosyntheses of protein in murine L1210 cells.; type: functional, cell-based; settings: Mus musculus
[3] = test system: L1210; assay: Inhibitory effect on the biosyntheses of RNA in murine L1210 cells.; type: functional, cell-based; settings: Mus musculus
[4] = Cytotoxicity against human Molt 4/C8 cells.; type: functional, cell-based; settings: Molt4/C8
[5] = Average potency of all four cell lines (P388 cell line, L1210 cell line, Molt 4/C8 cell line, CEM T-lymphocytes); type: functional; design: unit not given here
[6] = test system: L1210; assay: Inhibitory effect on the biosyntheses of DNA in murine L1210 cells.; type: functional, cell-based; settings: Mus musculus
[7] = test system: L1210; assay: Cytotoxicity against murine L1210 cells.; type: functional, cell-based; settings: Mus musculus
[8] = test system: CCRF-CEM; assay: Cytotoxicity against CEM T-lymphocytes.; type: functional, cell-based; settings: Homo sapiens
[9] = test system: Jurkat; assay: Inhibitory effect on the biosyntheses of RNA using human Jurkat T cells.; type: functional
[10] = The apoptotic index [(number of human jurkat cells with apoptotic nuclei/number of cells counted) 100]; type: functional
[11] = test system: Jurkat; assay: Inhibitory effect on the biosyntheses of protein using human Jurkat T cells.; type: functional
[12] = test system: Jurkat; assay: (§1) Cytotoxicity against human Jurkat T cells.; type: functional, cell-based
[13] = test system: Jurkat; assay: as §1; type: functional

SMILES | IC50 [1] [nM] | IC50 [2] [µM] | IC50 [3] [µM] | IC50 [4] [nM] | AP [5] | IC50 [6] [µM] | IC50 [7] [µM] | IC50 [8] [nM] | Inhibition [9] | Apoptotic index [10] | Inhibition [11] [%] | IC50 [12] [nM] | IC80 [13] [nM]
O=C1/C(=C/c2ccc(N3CC3)cc2)CNC/C1=C\c1ccc(N2CC2)cc1 | 640 | 320 | 336 | 226000 | 157 | > 500 | 240 | 162000 | – | – | – | – | –
COc1ccc(/C=C2\CNC/C(=C\c3ccc(OC)cc3)C2=O)cc1 | 1540 | – | – | – | 174 | – | – | – | – | – | – | – | –
C=CC(=O)N1C/C(=C\c2ccc(N3CC3)cc2)C(=O)/C(=C/c2ccc(N3CC3)cc2)C1 | 43300 | – | – | 369000 | >353 | – | > 500 | > 500000 | – | – | – | – | –
C=CC(=O)N1C/C(=C\c2ccc(Cl)c(Cl)c2)C(=O)/C(=C/c2ccc(Cl)c(Cl)c2)C1 | 50 | – | – | 1040 | 0.92 | – | 1.52 | 1080 | 67.6% | 63.5 | 58.1 | 580 | 940
C=CC(=O)N1C/C(=C\c2ccc(Cl)cc2)C(=O)/C(=C/c2ccc(Cl)cc2)C1 | 150 | – | – | 440 | 0.76 | – | 1.96 | 490 | – | – | – | – | –
O=C1/C(=C/c2ccccc2)CNC/C1=C\c1ccccc1 | 770 | – | – | – | 3.03 | – | – | – | – | – | – | – | –
O=C1/C(=C/c2ccc(Cl)c(Cl)c2)CNC/C1=C\c1ccc(Cl)c(Cl)c1 | 1010 | – | – | 40200 | 47.8 | – | 129 | 20800 | 26.4% and 31.1% | 48.3 | – | 3090 | 4830
C=CC(=O)N1C/C(=C\c2ccc(OC)cc2)C(=O)/C(=C/c2ccc(OC)cc2)C1 | 680 | – | – | 2270 | 4.36 | – | 11.8 | 2670 | – | – | – | – | –
C=CC(=O)N1C/C(=C\c2ccccc2)C(=O)/C(=C/c2ccccc2)C1 | 500 | – | – | 1420 | 3.3 | – | 8.69 | 1480 | – | – | – | – | –
C=CC(=O)N1C/C(=C\c2ccc([N+](=O)[O-])cc2)C(=O)/C(=C/c2ccc([N+](=O)[O-])cc2)C1 | 50 | 3.21 | 5.73 | 150 | 0.22 | 2.77 | 0.42 | 260 | – | – | – | – | –
O=C1/C(=C/c2ccc(Cl)cc2)CNC/C1=C\c1ccc(Cl)cc1 | 740 | – | – | – | 16.1 | – | – | – | – | – | – | – | –
O=C1/C(=C/c2ccc([N+](=O)[O-])cc2)CNC/C1=C\c1ccc([N+](=O)[O-])cc1 | 200 | 214 | 276 | 8280 | 11.5 | 228 | 32.9 | 4470 | – | – | – | – | –
C=CC(=O)N1C/C(=C\c2ccc(F)cc2)C(=O)/C(=C/c2ccc(F)cc2)C1 | 270 | – | – | 410 | 1.34 | – | 3.89 | 800 | – | – | – | – | –
O=C1/C(=C/c2ccc(F)cc2)CNC/C1=C\c1ccc(F)cc1 | 600 | – | – | – | 11 | – | – | – | – | – | – | – | –
N[C@@H](Cc1ccc(N(CCCl)CCCl)cc1)C(=O)O | – | 94.6 | > 100 | – | 2.02 | > 100 | – | – | 85.1% | – | 17.3 | – | –
